In patent US20220257540A1, “COMPOSITIONS AND METHODS FOR TREATMENT OF HEPATITIS B VIRUS INFECTION” (ANHUI RONGHANG BIOTECH DEVELOPMENT CO., LTD., priority 2019, published 2022):
Read-outs that look alike come from different tables or passages of the source.

Assays:
[1] = tested on: HBV GT C; assay: In vitro anti-HBV efficacy in HBV-infected PXB-cells; type: cell-based; conditions: for Extracellular HBV DNA / Extracellular HBsAg / Intracellular HBV DNA / Intracellular cccDNA / anti-HBV efficacy: Day 27; for Extracellular HBeAg: Day 27, 10 fold diluted sample; for anti-HBV efficacy: HBV-infected PXB-cells
Method: Materials & Methods: PXB-cells was infected with HBV GT C. […] The anti-HBV therapeutic efficacy was measured by the analysis of extracellular HBV DNA, HBsAg, HBeAg, h-Alb, and intracellular HBV DNA/cceDNA levels. Entecavir was used as the positive control. The hepatocytes isolated from 3 mice were combined to seed culture plate. The cell density of mixed cell was 7.37×10^6 cells/mL. PXB-cells® are the fresh hepatocytes which are isolated from PXB-mice. Cells viability after isolation: >80%. Donor Hepatocytes were purchased from Corning, Incorporated (Tewksbury, Mass., USA), Lot: BD195 ([…]). […] Entecavir was purchased from Santa-cruz, Lot: 10914, Concentration: 1 mM. Plates was observed under microscopy and photographed.

[2] = tested on: chronic Hepatitis B; conditions: 1 mg a day orally for 5 days-a-week over 6 months, cited from earlier work
[3] = tested on: liver fibrosis; conditions: rats with carbon tetrachloride induced cirrhosis; cited from earlier work
[4] = ingested more than 0.8 mg/kg; cited from earlier work
[5] = cited from earlier work; for Peak blood level (Cmax) / Exposure (area under the curve) / terminal half-life: fasted healthy volunteers; for mean Cmax: healthy adults, capsules orally
[6] = tested on: HBV-related postnecrotic cirrhosis; conditions: double-blind controlled trial, 100 patients; cited from earlier work

In the case of `C=C1[C@H](CO)[C@@H](O)C[C@@H]1n1cnc2c(=O)[nH]c(N)nc21` [Entecavir], the “Extracellular HBV DNA” value ([1]; Entecavir 9.8 pM) is reported as 6.36 Log copies/mL, the “Extracellular HBsAg” value ([1]; Entecavir 9.8 pM) is reported as 16.0 IU/mL and the “Intracellular HBV DNA” value ([1]; Entecavir 9.8 pM) is reported as 91546 copies/100 ng DNA. The “Intracellular cccDNA” value ([1]; Entecavir 9.8 pM) was 125 copies/100 ng DNA, the “Extracellular HBeAg” value ([1]; Entecavir 9.8 pM) was 11.6 C.O.I and the “Extracellular HBV DNA” value ([1]; Entecavir 19.5 pM) was 5.76 Log copies/mL. For the same compound, the “Extracellular HBsAg” value ([1]; Entecavir 19.5 pM) was 14.2 IU/mL, the “Intracellular HBV DNA” value ([1]; Entecavir 19.5 pM) was 53766 copies/100 ng DNA and the “Intracellular cccDNA” value ([1]; Entecavir 19.5 pM) was 82 copies/100 ng DNA. For the same compound, the “Extracellular HBeAg” value ([1]; Entecavir 19.5 pM) was 10.0 C.O.I, the “Extracellular HBV DNA” value ([1]; Entecavir 39.1 pM) was 5.06 Log copies/mL and the “Extracellular HBsAg” value ([1]; Entecavir 39.1 pM) was 12.2 IU/mL. For the same compound, the “Intracellular HBV DNA” value ([1]; Entecavir 39.1 pM) was 30701 copies/100 ng DNA, the “Intracellular cccDNA” value ([1]; Entecavir 39.1 pM) was 69 copies/100 ng DNA and the “Extracellular HBeAg” value ([1]; Entecavir 39.1 pM) was 8.1 C.O.I. For the same compound, the “Extracellular HBV DNA” value ([1]; Entecavir 78.1 pM) was 4.66 Log copies/mL, the “Extracellular HBsAg” value ([1]; Entecavir 78.1 pM) was 15.7 IU/mL and the “Intracellular HBV DNA” value ([1]; Entecavir 78.1 pM) was 14257 copies/100 ng DNA. For the same compound, the “Intracellular cccDNA” value ([1]; Entecavir 78.1 pM) was 82 copies/100 ng DNA, the “Extracellular HBeAg” value ([1]; Entecavir 78.1 pM) was 9.8 C.O.I and the “Extracellular HBV DNA” value ([1]; Entecavir 156.3 pM) was 4.56 Log copies/mL. For the same compound, the “Extracellular HBsAg” value ([1]; Entecavir 156.3 pM) was 15.1 IU/mL, the “Intracellular HBV DNA” value ([1]; Entecavir 156.3 pM) was 5620 copies/100 ng DNA and the “Intracellular cccDNA” value ([1]; Entecavir 156.3 pM) was 61 copies/100 ng DNA. For the same compound, the “Extracellular HBeAg” value ([1]; Entecavir 156.3 pM) was 9.6 C.O.I, the “Extracellular HBV DNA” value ([1]; Entecavir 312.5 pM) was 4.46 Log copies/mL and the “Extracellular HBsAg” value ([1]; Entecavir 312.5 pM) was 14.3 IU/mL. The “Intracellular HBV DNA” value ([1]; Entecavir 312.5 pM) was 3752 copies/100 ng DNA, the “Intracellular cccDNA” value ([1]; Entecavir 312.5 pM) was 34 copies/100 ng DNA and the “Extracellular HBeAg” value ([1]; Entecavir 312.5 pM) was 9.4 C.O.I. The “Extracellular HBV DNA” value ([1]; Entecavir 625 pM) was 4.46 Log copies/mL, the “Extracellular HBsAg” value ([1]; Entecavir 625 pM) was 13.0 IU/mL and the “Intracellular HBV DNA” value ([1]; Entecavir 625 pM) was 2954 copies/100 ng DNA. For the same compound, the “Intracellular cccDNA” value ([1]; Entecavir 625 pM) was “+”, the “Extracellular HBeAg” value ([1]; Entecavir 625 pM) was 8.9 C.O.I and the “Extracellular HBV DNA” value ([1]; Entecavir 1.25 nM) was 4.46 Log copies/mL. The “Extracellular HBsAg” value ([1]; Entecavir 1.25 nM) was 11.2 IU/mL, the “Intracellular HBV DNA” value ([1]; Entecavir 1.25 nM) was 3031 copies/100 ng DNA and the “Intracellular cccDNA” value ([1]; Entecavir 1.25 nM) was “+”. For the same compound, the “Extracellular HBeAg” value ([1]; Entecavir 1.25 nM) was 6.9 C.O.I, the “Extracellular HBV DNA” value ([1]; Entecavir 5 nM) was 4.26 Log copies/mL and the “Extracellular HBsAg” value ([1]; Entecavir 5 nM) was 10.9 IU/mL. The “Intracellular HBV DNA” value ([1]; Entecavir 5 nM) was 2974 copies/100 ng DNA, the “Intracellular cccDNA” value ([1]; Entecavir 5 nM) was 33 copies/100 ng DNA and the “Extracellular HBeAg” value ([1]; Entecavir 5 nM) was 7.1 C.O.I. The “Extracellular HBV DNA” value ([1]; Entecavir 10 nM) was 4.46 Log copies/mL, the “Extracellular HBsAg” value ([1]; Entecavir 10 nM) was 11.6 IU/mL and the “Intracellular HBV DNA” value ([1]; Entecavir 10 nM) was 2936 copies/100 ng DNA. The “Intracellular cccDNA” value ([1]; Entecavir 10 nM) was “+”, the “Extracellular HBeAg” value ([1]; Entecavir 10 nM) was 7.4 C.O.I and the anti-HBV efficacy [1] was “anti-HBV efficacy in a dose dependent manner”.
In the case of `COc1cc2c(c(OC)c1OC)-c1ccc(OC)c(=O)cc1[C@@H](NC(C)=O)CC2` [Colchicine, N [5,6,7,9-tetrahydro-1,2,3,10-tetratmethoxy 9-oxobenzo[a]heptalen-7-yl], (S)-acetamide], the “patients failed (response rate)” value ([2]; pilot study) is given as 3 of 7, the “sustained response, treated patients” value ([2]; two-center trial, 4 of 6 treated patients) is given as 66.6% and the “Extracellular HBV DNA” value ([1]; Colchicine 1 nM) is given as 7.06 Log copies/mL. For the same compound, the “Extracellular HBsAg” value ([1]; Colchicine 1 nM) was 23.1 IU/mL, the “Intracellular HBV DNA” value ([1]; Colchicine 1 nM) was 250511 copies/100 ng DNA and the “Intracellular cccDNA” value ([1]; Colchicine 1 nM) was 217 copies/100 ng DNA. The “Extracellular HBeAg” value ([1]; Colchicine 1 nM) was 14.7 C.O.I, the “Extracellular HBV DNA” value ([1]; Colchicine 2 nM) was 7.06 Log copies/mL and the “Extracellular HBsAg” value ([1]; Colchicine 2 nM) was 23.5 IU/mL. The “Intracellular HBV DNA” value ([1]; Colchicine 2 nM) was 235131 copies/100 ng DNA, the “Intracellular cccDNA” value ([1]; Colchicine 2 nM) was 207 copies/100 ng DNA and the “Extracellular HBeAg” value ([1]; Colchicine 2 nM) was 16.2 C.O.I. The “Extracellular HBV DNA” value ([1]; Colchicine 3.9 nM) was 7.16 Log copies/mL, the “Extracellular HBsAg” value ([1]; Colchicine 3.9 nM) was 26.7 IU/mL and the “Intracellular HBV DNA” value ([1]; Colchicine 3.9 nM) was 282895 copies/100 ng DNA. The “Intracellular cccDNA” value ([1]; Colchicine 3.9 nM) was 247 copies/100 ng DNA, the “Extracellular HBeAg” value ([1]; Colchicine 3.9 nM) was 19.2 C.O.I and the “Extracellular HBV DNA” value ([1]; Colchicine 7.8 nM) was 7.06 Log copies/mL. For the same compound, the “Extracellular HBsAg” value ([1]; Colchicine 7.8 nM) was 25.5 IU/mL, the “Intracellular HBV DNA” value ([1]; Colchicine 7.8 nM) was 270324 copies/100 ng DNA and the “Intracellular cccDNA” value ([1]; Colchicine 7.8 nM) was 227 copies/100 ng DNA. The “Extracellular HBeAg” value ([1]; Colchicine 7.8 nM) was 17.4 C.O.I, the “Extracellular HBV DNA” value ([1]; Colchicine 15.6 nM) was 6.86 Log copies/mL and the “Extracellular HBsAg” value ([1]; Colchicine 15.6 nM) was 25.2 IU/mL. For the same compound, the “Intracellular HBV DNA” value ([1]; Colchicine 15.6 nM) was 256994 copies/100 ng DNA, the “Intracellular cccDNA” value ([1]; Colchicine 15.6 nM) was 261 copies/100 ng DNA and the “Extracellular HBeAg” value ([1]; Colchicine 15.6 nM) was 16.3 C.O.I. For the same compound, the “Extracellular HBV DNA” value ([1]; Colchicine 31.3 nM) was 6.06 Log copies/mL, the “Extracellular HBsAg” value ([1]; Colchicine 31.3 nM) was 2.17 IU/mL and the “Intracellular HBV DNA” value ([1]; Colchicine 31.3 nM) was 52249 copies/100 ng DNA. The “Intracellular cccDNA” value ([1]; Colchicine 31.3 nM) was 80 copies/100 ng DNA, the “Extracellular HBeAg” value ([1]; Colchicine 31.3 nM) was 3.6 C.O.I and the “Extracellular HBV DNA” value ([1]; Colchicine 62.5 nM) was 4.86 Log copies/mL. The “Extracellular HBsAg” value ([1]; Colchicine 62.5 nM) was 0.12 IU/mL, the “Intracellular HBV DNA” value ([1]; Colchicine 62.5 nM) was 9638 copies/100 ng DNA and the “Intracellular cccDNA” value ([1]; Colchicine 62.5 nM) was “+”. The “Extracellular HBeAg” value ([1]; Colchicine 62.5 nM) was 0.7 C.O.I, the “Extracellular HBV DNA” value ([1]; Colchicine 125 nM) was 4.86 Log copies/mL and the “Extracellular HBsAg” value ([1]; Colchicine 125 nM) was less than 0.05 IU/mL. For the same compound, the “Intracellular HBV DNA” value ([1]; Colchicine 125 nM) was 8341 copies/100 ng DNA, the “Intracellular cccDNA” value ([1]; Colchicine 125 nM) was “+” and the “Extracellular HBeAg” value ([1]; Colchicine 125 nM) was 0.3 C.O.I. The “Extracellular HBV DNA” value ([1]; Colchicine 250 nM) was 4.86 Log copies/mL, the “Extracellular HBsAg” value ([1]; Colchicine 250 nM) was less than 0.05 IU/mL and the “Intracellular HBV DNA” value ([1]; Colchicine 250 nM) was 9187 copies/100 ng DNA. For the same compound, the “Intracellular cccDNA” value ([1]; Colchicine 250 nM) was “+”, the “Extracellular HBeAg” value ([1]; Colchicine 250 nM) was 0.2 C.O.I and the “Extracellular HBV DNA” value ([1]; Colchicine 500 nM) was 4.86 Log copies/mL. The “Extracellular HBsAg” value ([1]; Colchicine 500 nM) was less than 0.05 IU/mL, the “Intracellular HBV DNA” value ([1]; Colchicine 500 nM) was 9019 copies/100 ng DNA and the “Intracellular cccDNA” value ([1]; Colchicine 500 nM) was “+”. The “Extracellular HBeAg” value ([1]; Colchicine 500 nM) was 0.2 C.O.I, the “Extracellular HBV DNA” value ([1]; Colchicine 1000 nM) was 4.86 Log copies/mL and the “Extracellular HBsAg” value ([1]; Colchicine 1000 nM) was less than 0.05 IU/mL. The “Intracellular HBV DNA” value ([1]; Colchicine 1000 nM) was 8717 copies/100 ng DNA, the “Intracellular cccDNA” value ([1]; Colchicine 1000 nM) was 29 copies/100 ng DNA and the “Extracellular HBeAg” value ([1]; Colchicine 1000 nM) was 0.2 C.O.I. For the same compound, the anti-HBV efficacy [1] was “anti-HBV efficacy in a dose dependent manner”, the liver fibrosis [3] was “decrease liver fibrosis” and the mortality [4] was 100%. The “Peak blood level (Cmax)” value ([5]; high-dose (1.2 mg followed by 0.6 mg every hour for 6 h; 4.8 mg total)) was 6.84 ng/mL, the “Exposure (area under the curve)” value ([5]; high-dose (4.8 mg total)) was 118.2 ng/h/mL and the terminal half-life ([5]; high-dose (4.8 mg total)) was 31.4 h. The “Peak blood level (Cmax)” value ([5]; low-dose (1.2 mg followed by 0.6 mg in 1 h; 1.8 mg total)) was 6.19 ng/mL, the “Exposure (area under the curve)” value ([5]; low-dose (1.8 mg total)) was 52.1 ng/h/mL and the terminal half-life ([5]; low-dose (1.8 mg total)) was 23.6 h. The “Exposure (area under the curve)” value ([5]; single dose (0.6 mg)) was 14.1 ng/h/mL, the terminal half-life ([5]; single dose (0.6 mg)) was 6.36 h and the “mean Cmax” value ([5]; 0.6 mg single dose) was 3 ng/mL. For the same compound, the “mean Cmax” value ([5]; 1.0 mg single dose) was 6.50 ± 1.03 ng/mL, the Absolute bioavailability ([5]; human, in vivo) was “approximately 45%” and the “effect in the treatment of HBV-related postnecrotic cirrhosis” value [6] was “no effect”.
